Measured values as given in patent US6689808B2, “Substituted phthalides, a process for their preparations and pharmaceutical compositions containing them” (Les Laboratoires Servier, priority 2000, dated 2004).

Question: For CCCCCCCCC1OC(=O)c2cc(NC(C)=O)ccc21 (stereo not drawn) [Example 9, 6-Acetamido-3-octyl-phthalide], which melting point is on record?
Answer: The melting point was 133 to 134 °C.

Question: With CCCCCCC1OC(=O)c2cc(NC(C)=O)ccc21 (stereo not drawn) [Example 8, 6-Acetamido-3-hexyl-phthalide] as the molecule, how does the melting point read?
Answer: Its melting point is 135 to 137 °C.

Question: Which melting point does the source give for CCCCC1OC(=O)c2cc(NC(N)=S)ccc21 (stereo not drawn) [Example 21, 3-Butyl-6-thioureido-phthalide] here?
Answer: Its melting point is 183 to 185 °C.

Question: With CCC1(CC)OC(=O)c2cc(N)ccc21 [Example 25, 6-Amino-3,3-diethyl-phthalide] as the molecule, how does the melting point read?
Answer: Its melting point is 153 to 154 °C.

Question: With CCC1(CC)OC(=O)c2cc([N+](=O)[O-])ccc21 [Example 24, 3,3-Diethyl-6-nitro-phthalide] as the molecule, how does the melting point read?
Answer: Its melting point is 98.5 to 100 °C.

Question: With CCCCCCCCC1OC(=O)c2cc(N)ccc21 (stereo not drawn) [Example 6, 6-Amino-3-octyl-phthalide] as the molecule, how does the melting point read?
Answer: The melting point was 124 to 125 °C.
